# Experimental data taken from patent US20240358681A1, “METHODS OF USE OF PPAR AGONIST COMPOUNDS AND PHARMACEUTICAL COMPOSITIONS THEREOF” (Mitobridge, Inc., priority 2021, published 2024).
# Several values for one entry are separate records, joined by “and”; a condition that tells them apart may be missing. Identical values can stand only once. Entries after “also recorded” stand apart in the source; their conditions may differ.
# How the values were obtained:
# [1] = system: fibroblasts from patients harboring mitochondrial mutations (Leigh Syndrome/LHON, MELAS, KSS) and MERRF cybrid cell line; assay: Gene expression analysis in cells harboring mitochondrial mutations; assay type: cell-based, human; settings: for ACADVL expression: FIG. 3C
# Excerpt: Leigh syndrome/Leber's hereditary optic neuropathy (LHON) cells were isolated from a patient diagnosed with both Leigh syndrome and LHON. This subject had two point mutations; one in the mtDNA-encoded ND4 gene (mutation 11778G>A) and one in the mtDNA encoded ND6 gene (mutation 14484T>C) in the NADH dehydrogenase complex. m.3243A>G MELAS (Mitochondrial encephalomyopathy, lactic acidosis, and stroke-like episodes) cells were isolated from a patient harboring the m.3243A>G mutation in the mtDNA-encoded tRNA-leucine gene. Kearns Sayre Syndrome (KSS) fibroblast cells were isolated from a patient harboring the 5 kilobase (Kb) common deletion and were obtained from the Coriell Institue along with a control fibroblast cell line. MERRF m.8344A>G osteosarcoma transmitochondrial cybrids were acquired from the Moraes lab (Masucci, J. P., M. P. Schon Ea Fau-King, and M. P. King, Point mutations in the mitochondrial tRNA(Lys) gene: implications for pathogenesis and mechanism. (0300-8177)).
# MELAS m.3243A>G fibroblasts were grown in Eagle's minimum essential media (EMEM) supplemented with 10% heat inactivated FBS, 1 mM sodium pyruvate, 1× non-essential amino acids, 2 mM 1-glutamine, and 100 μg/ml of uridine. KSS fibroblasts were grown in EMEM supplemented with 15% heat inactivated FBS, 1× non-essential amino acids, and 100 μg/ml of uridine. Leigh/LHON syndrome fibroblast cell lines were grown in Dulbecco's modified eagle medium (DMEM) supplemented with 1 mM sodium pyruvate, 10% HI FBS, and 100 μg/ml of uridine. MERRF tRNA-LYS 8344 cybrid cells were grown in DMEM supplemented with 10% heat inactivated FBS, 1 mM sodium pyruvate and 100 μg/ml of uridine.
# All cell lines with the exception of LHON/Leigh Syndrome fibroblasts were plated at a density of 50 k/well in 6 well plates. Compound (I) or 0.1% DMSO was added 8 hours later in complete media. Treatment media or vehicle media were refreshed 24 hours later for a total treatment time of 48 hours. LHON/Leigh Syndrome fibroblasts were plated and treated in the same manner but for a total treatment time of 24 hours.
# mTotal RNA was isolated using NucleoSpin® kits (Macherey-Nagel) as per manufacturer's protocol. One microgram of total RNA was used to generate cDNA using the High-Capacity cDNA Reverse Transcription Kit (Applied Biosystems).
# MELAS m.3243A>G fibroblasts, KSS Fibroblast and MERRF tRNA-Lys 8344 cybrid gene expression was performed using 5 ng cDNA and 300 nM of primers were mixed with water and iQ SYBR Green master mix, loaded in 384-well qPCR plates, and subsequently analyzed using a BioRad CFX384 Real-Time PCR Detection System. Fold change was calculated as ΔCt on a per sample basis was calculated as Ct (Gene of interest)−Ct (Average of reference genes). The ΔΔCt was then calculated as ΔCt (experimental sample)−Average ΔCt (control group). Fold change was calculated as 2^−ΔΔCT. LHON/Leigh Syndrome fibroblast cDNA was mixed with dH2O and SYBR Green master mix and 1 μM of primers were dispensed into the sample source plates and primer source plates in 384-well plates, respectively. Reactions were loaded into SmartChip (WaferGen Bio-systems) with Multisample Nanodispenser and the chip was analyzed in the SmartChip Cycler.
# Raw expression data was exported from software and graphed after processing with reference genes and normalized against control using QBase software. To obtain normalized values, the calibrated normalized relative quantities (CNRQ) values of each sample were divided by the average CNRQ for all vehicle treated samples in order to make expression relative to the control group.
# [2] = Tissue exposure in skeletal muscle (gastrocnemius) of aged DIO mice; assay type: in vivo, mouse; settings: 30 mg/kg oral once daily, 5 weeks, FIG. 6A
# Procedure: (§1) All animal studies were performed in accordance with Charles River Laboratories animal welfare protocols. Male Diet-Induced Obese (DIO) C57BL/6NTac mice 28 weeks of age were fed a high fat diet. 20 mice were randomized based on bodyweight into two cohorts of 10 mice each. Five mice were assigned to each treatment group in each cohort (i) vehicle or (ii) Compound (I) at 30 mg/kg via (n=10 total animals per treatment). […] Mice were acclimatized to the treadmill room for one hour on days of training or endurance runs. After an initial 5 min exploration period the treadmill belt moved at 5 m/min for 10 min with the motivation grid intensity set to 0.46 mA. Mice required a few visits to the grid to learn to walk/run on the moving belt and avoid the electric grid shock. After two acclimatization periods the mice learned to avoid the electric grid and stay on the moving belt, with fewer visits to the electric grid. The maximum speed for the endurance run was capped at 16.5 m/min based on speed acclimation runs, which represents the speed at which 25% of animals are running in the top ⅔ of the treadmill at a 5° slope. The mice were considered exhausted if they stayed on the electric grid with no limbs on the treadmill belt for 10 seconds.
# Before and after the exhaustion run, blood samples were obtained via a tail vein nick. […]
# [3] = system: PPARδ target genes and FAO genes in quadriceps muscle; assay: Gene expression analysis of quadriceps muscle in aged DIO mice; assay type: in vivo, mouse; settings: 30 mg/kg oral once daily, 5 weeks
# Procedure: as §1
# Before and after the exhaustion run, blood samples were obtained via a tail vein nick. At the end of the study (day 45) whole blood along with gastrocnemius and quadriceps skeletal muscles were collected following CO2 euthanasia.
smiles,measurement,setting,value
"Cc1cnc(-c2ccc(C(F)(F)F)cc2)n1Cc1ccccc1OCCC[C@@H](C)CC(=O)O [Compound (I), (R)-3-Methyl-6-(2-((5-methyl-2-(4-(trifluoromethyl)phenyl)-1H-imidazol-1-yl)methyl)-phenoxy)hexanoic acid]",PDK4 transcript increase,"[1]; 24 or 48 hour treatment, across all four cell lines tested, FIG. 3B",10 to 50 fold and 10 to 100 fold
same,ANGPTL4 induction (marker of target engagement),"[1]; 24 or 48 hours treatment, FIG. 3A",large induction; also recorded: greatly induced
same,ACADVL expression,"[1]; MELAS and MERRF cells, n=2, no statistical comparison",showed induction
same,CPT1A transcript induction,"[1]; across all cell lines tested, FIG. 3D",approximately 2 fold
same,SLC25A20 expression,"[1]; across all four cell lines tested, FIG. 3E",induced
same,"Genes involved in the import, packaging and catabolism of fatty acids into the mitochondria for OXPHOS","[1]; across four cell lines with mitochondrial mutations, FIG. 3C-3E",upregulated
same,ACADVL expression,[1]; two of the lines tested,significantly upregulated
same,skeletal muscle exposure,[2],detectable and covered the mouse EC50
same,Angptl4 expression increase in quadriceps muscle,[3]; FIG. 5A,3.5 fold
same,Pdk4 expression increase in quadriceps muscle,[3]; FIG. 5B,2.5 fold
same,Acadvl expression (FAO gene),[3]; FIG. 5C-5E,significantly increased
same,Cpt1a expression (FAO gene),[3]; FIG. 5C-5E,significantly increased
same,Slc25a20 expression (FAO gene),[3]; FIG. 5C-5E,significantly increased
